Holding throughout (assay type): cell-based
One data set relates to E. coli (D31). Put plainly: Antibacterial broth microdilution, E. coli. The settings on record: HI=HD50/IC50, E. coli. Here is the method:
(§1) The antibacterial activity of each dendrimer peptide was tested by following standard broth microdilution protocols recommended by the National Committee for Clinical Laboratory Standard (NCCLS 2004). Antibacterial testing was carried out on gram-negative bacteria E. coli (D31) and gram-positive bacteria S. aureus in liquid media Mueller Hinton (MH) Brooth according to literature procedures. Dendrimers were dissolved in PBS buffer (high salt, 150 mM NaCl; low salt, 75 mM NaCl), pH 7.4 to make series of stocks of 2-fold dilution. Cultures were grown overnight on Mueller Hinton (MH) agar plates, and 3 to 5 uniform colonies of each organism were transferred with an inoculating loop to test tubes containing MH broth, and incubated at 37° C. overnight, then diluted until the turbidity matched that of the 0.5 McFarland standard (approximately 1.5×10^8 cells/mL). The resulting solutions were further diluted to give approximately 2×10^4-2×10^5 CFU/mL. 100 μL of the bacterial inoculums were incubated in 96-well plates with varying volumes of stock solution and PBS buffer to bring the total volume to 200 μL. Solutions containing the same volumes of PBS buffer and MH Broth, with and without bacteria were used as controls. After these plates were incubated with shaking for 18 hrs at 37° C. to ensure the cultures had reached log phase growth, the absorbance readings were recorded at a wavelength of 600 nm using a Absorbance Microplate Reader BIO-TEK ELX800. The 18-hour absorbance data were used to calculate the percent inhibition for each test condition. All assays were carried out in triplicate. The experimental data were fitted to sigmoidal dose-response curves using GraphPad Prism (GraphPad Software Inc., San Diego, Calif., USA).

For a further data set, the system named is S. aureus. Here is the method: as §1
The test system of another data set is fresh sheep RBC. The settings on record: red cells of sheep, 1 h. Here is the method: Hemolytic activity of dendrimeric compounds were assessed on fresh sheep RBC (Fitzgerald, Inc., MA). Dendrimer concentrations corresponding to 50% hemolysis were used as hemolytic dose (HD50) determined from dose-response curve. The fresh sheep RBC was washed with PBS buffer (thrice) and aliquots of cell suspension were mixed in eppendorf tubes with varying volumes of stocks and buffer for a total volume of 400 μL. These tubes were incubated at 37° C. for 1 hr, and then spun down at 3,000 rpm for 5 mins. The resulting supernatant was trasferred to a 96-well plate and the absorbances at 540 nm were measured in an Absorbance Microplate Reader BIO-TEK ELX800. Zero hemolysis and 100% hemolysis controls were obtained by incubating the cells with buffer and 1% Triton X-100, respectively. Hemolytic index (HI) was defined as HI=HD50/IC50 (Table 1 and 3).

Square brackets hold non-standard residues; d marks the D form. Side chains are listed from the residue outwards. Peptide text beside a SMILES is read from it. * marks the point of attachment. Lys(α,ε-(ArgTrp)2) = N=C(N)NCCC[C@H](N)C(=O)N[C@@H](Cc1c[nH]c2ccccc12)C(=O)NCCCC[C@H](NC(=O)[C@H](Cc1c[nH]c2ccccc12)NC(=O)[C@@H](N)CCCNC(=N)N)C(=O)*; βAla = NCCC(=O)O

With `N=C(N)NCCC[C@H](N)C(=O)N[C@@H](Cc1c[nH]c2ccccc12)C(=O)NCCCC[C@H](NC(=O)[C@H](Cc1c[nH]c2ccccc12)NC(=O)[C@@H](N)CCCNC(=N)N)C(=O)NCCCC[C@H](NC(=O)[C@H](CCCCNC(=O)[C@H](Cc1c[nH]c2ccccc12)NC(=O)[C@@H](N)CCCNC(=N)N)NC(=O)[C@H](Cc1c[nH]c2ccccc12)NC(=O)[C@@H](N)CCCNC(=N)N)C(=O)NCCC(N)=O` [(RW)4D, reference compound] (H-RWK([Trp-Arg])K(Lys(α,ε-(ArgTrp)2))[βAla]-NH2; N-terminus and C-terminus assumed), in the data set on E. coli (D31), the “E. Coli HI (hemolytic index)” value is 310. In addition, the “S. Aureus IC50” value with S. aureus (18 h) was 16 µg/mL. Besides, the “S. Aureus HI (hemolytic index)” value with S. aureus (HI=HD50/IC50, S. aureus) is given as 88. For the same compound, the “Hemolysis HD50” value with fresh sheep RBC turned out to be 1400 µg/mL.
